Measurements from patent publication US8263589B2, “Inhibitors of protein aggregation” (Wista Laboratories Ltd., priority 2006, dated 2012).
Like-named read-outs stand apart in the source and are kept apart here.

Key:
[1] = target: T1, α-synuclein (fsyn binding to solid phase tsyn) (Homo sapiens, UniProt P37840); assay: Solid phase ELISA assay for synuclein-synuclein binding
T1 construct: full-length α-synuclein (fsyn) was added in the aqueous phase; The core aggregation domain of α-synuclein (amino acids 31-109) was expressed with an N-terminal polyhistidine tag; polyhistidine (N); made in house; host or cells: E. coli
Protocol: A solid phase assay was used to measure self-association of α-synuclein. tsyn diluted in carbonate buffer (pH 8.5) was bound to the assay plate, and full-length α-synuclein (fsyn) was added in the aqueous phase. The aqueous phase binding buffer was 50 mM Na-phosphate, pH 6.0, 20 mM NaCl, 0.05% Tween-20, 1% fish skin gelatine.
The two α-synuclein proteins were also used in a binding assay. The tsyn is bound in the solid phase, and full-length fsyn is added in the aqueous phase. […]

[2] = target: T2, assembled tsyn (core aggregation domain of α-synuclein, amino acids 31-109) (Homo sapiens, UniProt P37840); assay: Fluorescence assay of disruption of assembled tsyn (thioflavine T / primulin); type: biochemical
T2 construct: The core aggregation domain of α-synuclein (amino acids 31-109) was expressed with an N-terminal polyhistidine tag; polyhistidine (N); made in house; host or cells: E. coli
Protocol: (§1) α-Synuclein proteins (tsyn or fsyn) were incubated at 37° C. for the times indicated in Figure legends with mixing to induce fibril formation. In some cases, 50 μg/ml heparin was included to enhance fibril formation.
(§2) Samples of 10 μl were then diluted to 100 μl with water, plus thioflavine T or primulin at 1 μM, or 0.2 or 5 μM in some cases. Fluorescence excitation spectra were measured in 96 well plates in a Varian Carey Eclipse Fluorescence Spectrophotometer, with the emission wavelength at 480 nm. Excitation spectra were corrected for the signal measured without tsyn and the peak signal measured from the spectra. The data were normalised to the value measured without compound and P50 values measured from plots of normalised fluorescence against concentration of compound.
The effect of the compounds on thioflavine T and primulin fluorescence could be due to competition for the fluorescence ligand rather than disruption of the fibrils. To test this, the experiment was done at three different concentrations of fluorophore, since the P50 will be dependent on fluorophore concentration only if the effect is due to competition.

[3] = target: α-synuclein (SSFsyn) in NIE-115 cells (Homo sapiens, UniProt P37840); assay: Cell based assay for α-synuclein aggregation (SSFsyn in NIE-115 cells differentiated with dbcAMP, immunoblot mAb 42); set-up: species or system mouse; conditions: for EC50: ratio of α-synuclein to non-specific band falls to 50% of dbcAMP alone, immunoblot mAb 42, read-out: EC50, inhibition of FSyn expression in NIE cells differentiated with dbcAMP
Protocol: The cell based assay employed a mouse neuroblastoma cell line NIE-115 that had been engineered to express full-length α-synuclein incorporating an N-terminal signal sequence (SSfsyn) to target incorporation of the protein into the membrane (see WO02/059150). When the cells were differentiated with dibutyryl cyclicAMP (dbcAMP) (1 mM) expression of the α-synuclein protein was increased.
α-synuclein protein was detected by immunoblot using various anti-α-synuclein antibodies. These included: mAb 42 (BD Biosciences Cat No. 610787) that recognises an epitope within tsyn (residues 31-109 of α-synuclein). In addition to α-synuclein, mAb 42 also reacts non-specifically with a protein of higher molecular mass (the protein is not recognised by other anti-α-synuclein antibodies). This protein was used as an estimate of cell numbers as the level of this protein in cells correlates with cell density. Drugs were tested with these cells and an inhibitory activity (EC50) was calculated by determining the drug concentration in which the ratio of α-synuclein to the non-specific band fell to 50% of the value for cells treated with dbcAMP alone.
The timing of the addition of the dbcAMP and drug was varied and the length of time that the cells are left in the presence of drug+dbcAMP before collecting cells was also be varied.

[4] = target: T3, assembled fsyn (full-length α-synuclein) (Homo sapiens, UniProt P37840); assay: Fluorescence assay of disruption of assembled fsyn (thioflavine T / primulin); type: biochemical; conditions: assembled 47 h with heparin, compound 1 h, read-out: P50 for inhibition of α-synuclein-dependent fluorescence
T3 construct: Full-length α-synuclein (syn) was expressed without a tag, and purified by ion exchange chromatography; made in house; host or cells: E. coli
Protocol: as §1, §2

parkinsonian tremor = conditions: cited from earlier work
[5] = 1 μM tsyn-16 (solid phase), 5 μM fsyn-20 (aqueous phase), 50 mM sodium phosphate pH 6.0, 20 mM NaCl, read-out: B50 (μM) in α-synuclein binding assay
[6] = tsyn-16 assembled with heparin (50 μg/ml), primulin 1 μM, mean ± SEM (n), read-out: P50 (μM) using primulin
[7] = tsyn-16 assembled with heparin (50 μg/ml), thioflavine T 1 μM, mean ± SEM (n), read-out: P50 (μM) using thioflavone T
[8] = assembled tsyn, primulin 0.2 μM, read-out: P50 (mean), effect of fluorophore concentration
[9] = assembled tsyn, primulin 1.0 μM, read-out: P50 (mean), effect of fluorophore concentration
[10] = assembled tsyn, primulin 5.0 μM, read-out: P50 (mean), effect of fluorophore concentration
[11] = assembled tsyn, thioflavine T 0.2 μM, read-out: P50 (mean), effect of fluorophore concentration
[12] = assembled tsyn, thioflavine T 1.0 μM, read-out: P50 (mean), effect of fluorophore concentration
[13] = assembled tsyn, thioflavine T 5.0 μM, read-out: P50 (mean), effect of fluorophore concentration
[14] = tsyn-13, primulin 1 μM, assembled 20 h with heparin, compound 1 h, read-out: P50 for inhibition of α-synuclein-dependent fluorescence
[15] = tsyn-13, thioflavine T 1 μM, assembled 20 h with heparin, compound 1 h, read-out: P50 for inhibition of α-synuclein-dependent fluorescence

Compound: O=c1c(O)c(-c2ccc(O)c(O)c2)oc2ccccc12 [3,3′,4′-Trihydroxy-flavone, reference compound]
- IC50 [1, 5]: 43.1 µM

Compound: O=c1cc(-c2ccccc2)oc2cc(O)ccc12 [7-Hydroxy-flavone, reference compound]
- IC50 [2]: > 50 µM
- IC50 ([2]; P50 (μM) using primulin, tsyn-16 assembled with heparin (50 μg/ml), primulin 1 μM, mean ± SEM (n)): > 50 µM
- IC50 [1]: 35.3 µM

Compound: Cc1c(-c2ccccc2)oc2cc(O)ccc2c1=O [7-hydroxy-3-methyl-flavone, reference compound]
- IC50 [1, 5]: 141 µM

Compound: CN(C)c1ccc2nc3ccc(N)cc3[s+]c2c1 [Azure A, reference compound]
- IC50 [2, 6]: 17.9 ± 2 µM
- IC50 [2, 7]: 3.8 ± 0.9 µM
- activity in the synuclein-synuclein binding assay [1]: inactive
- IC50 [1, 5]: > 500 µM
- EC50 [3]: 0.32 µM
- LD50 (NIE cells): 8.8 µM

Compound: CNc1ccc2nc3ccc(N(C)C)cc3[s+]c2c1 [Azure B, reference compound]
- activity in the synuclein-synuclein binding assay [1]: inactive
- IC50 [1, 5]: > 500 µM
- EC50 [3]: 0.25 µM
- LD50 (NIE cells): 0.8 µM

Compound: O=c1cc(-c2ccccc2)oc2cc(O)c(O)c(O)c12 [Baicalein, reference compound]
- IC50 [2, 6]: 28.2 µM
- IC50 [2, 7]: 47.6 µM
- IC50 [1, 5]: 2.5 µM

Compound: CCc1cc(N(CC)CC)cc2[s+]c3cc(N(CC)CC)cc(CC)c3nc12 [DEETC, 1,9-Diethyl-ethyl-thioninium chloride]
- activity in the synuclein-synuclein binding assay [1]: active
- IC50 [1, 5]: 0.4 µM
- EC50 [3]: 0.004 ± 0.001 µM
- LD50 (NIE cells): 1.0 µM

Compound: CCc1cc(N(C)C)cc2[s+]c3cc(N(C)C)cc(CC)c3nc12 [DEMTC, 1,9-Diethyl-methyl-thioninium chloride]
- activity in the synuclein-synuclein binding assay [1]: active
- IC50 [1, 5]: 0.8 ± 0.4 µM
- LD50 (NIE cells): 3 µM

Compound: CCN(CC)c1cc(C)c2nc3c(C)cc(N(CC)CC)cc3[s+]c2c1 [DMETC]
- IC50 [2, 6]: 5 ± 0.9 µM
- IC50 [2, 7]: 0.9 ± 0.2 µM
- activity in the synuclein-synuclein binding assay [1]: active
- IC50 [1, 5]: 0.5 ± 0.1 µM
- EC50 [3]: 0.05 ± 0.04 µM
- LD50 (NIE cells): 6 µM

Compound: Cc1cc(N(C)C)cc2[s+]c3cc(N(C)C)cc(C)c3nc12 [DMMTC, 1,9-Dimethyl-methyl-thioninium chloride]
- IC50 [2, 6]: 20.7 ± 7.8 µM
- IC50 [2, 7]: 0.2 µM
- activity in the synuclein-synuclein binding assay [1]: active
- IC50 [1, 5]: 4.9 µM
- EC50 [3]: 0.1 ± 0.02 µM
- LD50 (NIE cells): 1.2 µM

Compound: CCN(CC)c1ccc2nc3ccc(N(CC)CC)cc3[s+]c2c1 [ETC, Ethyl-thioninium chloride]
- IC50 [2, 8]: 41.7 µM
- IC50 [2, 9]: 34 µM
- IC50 [2, 10]: 32.3 µM
- IC50 [2, 11]: 3.2 µM
- IC50 [2, 12]: 9 µM
- IC50 [2, 13]: 17.6 µM
- IC50 [2, 14]: 24.1 µM
- IC50 [2, 15]: 30.3 µM
- IC50 [2, 6]: 26 ± 6 µM
- IC50 [2, 7]: 7.3 ± 3.8 µM
- IC50 ([4]; fsyn-14, primulin): 30.6 µM
- IC50 ([4]; fsyn-14, thioflavine T): 25.3 µM
- activity in the synuclein-synuclein binding assay [1]: active
- IC50 [1, 5]: 3.8 ± 0.3 µM
- EC50 [3]: 0.08 ± 0.02 µM
- LD50 (NIE cells): 38 µM

Compound: O=c1c(O)c(-c2ccc(O)c(O)c2)oc2cc(O)ccc12 [Fisetin, reference compound]
- IC50 [1, 5]: 88.2 µM

Compound: COc1cc(-c2oc3cc(O)ccc3c(=O)c2O)ccc1O [Geraldol, reference compound]
- IC50 [2, 6]: > 50 µM
- IC50 [2, 7]: > 50 µM
- IC50 [1, 5]: 60.8 µM

Compound: CN(C)c1ccc2nc3ccc(N(C)C)cc3[s+]c2c1 [MTC, methyl-thioninium chloride]
- IC50 [2, 8]: 41.7 µM
- IC50 [2, 9]: 35.1 µM
- IC50 [2, 10]: 31.2 µM
- IC50 [2, 11]: 11.6 µM
- IC50 [2, 12]: 12.7 µM
- IC50 [2, 13]: 20.2 µM
- IC50 [2, 14]: 12.9 µM
- IC50 [2, 15]: 18.5 µM
- IC50 [2, 6]: 30.4 ± 3 µM
- IC50 [2, 7]: 15.4 ± 3.7 µM
- IC50 ([4]; fsyn-14, primulin): 23.5 µM
- IC50 ([4]; fsyn-14, thioflavine T): 3.8 µM
- activity in the synuclein-synuclein binding assay [1]: active
- IC50 [1, 5]: 131 ± 15 µM
- tolerability of oral administration (parkinsonian tremor; oral 8 grains (=518 mg)/day): discontinued due to side effects

Compound: COc1cc(O)c2c(=O)c(O)c(-c3ccc(O)c(O)c3)oc2c1 [Rhamnetin, reference compound]
- IC50 [2, 6]: 34.7 µM
- IC50 [2, 7]: 39.4 µM
- IC50 [1, 5]: 11.4 ± 9.7 µM
- inhibitory activity in the cell based assay ([3]; NIE-115 SSFsyn cells with dbcAMP): inhibitory
- LD50 (NIE cells): 31 µM

Compound: O=c1c(O)c(-c2cc(O)c(O)c(O)c2)oc2cc(O)ccc12 [Robinetin, reference compound]
- IC50 [2, 6]: 27.6 µM
- IC50 [2, 7]: 21.1 µM
- IC50 [1, 5]: 39.2 µM

Compound: Cc1cc2nc3ccc(N(C)C)cc3[s+]c2cc1N [Tolonium chloride, Tolonium Chloride]
- IC50 [2, 6]: 8.8 ± 3.3 µM
- IC50 [2, 7]: 1.5 ± 0.2 µM
- activity in the synuclein-synuclein binding assay [1]: active
- IC50 [1, 5]: 3.3 ± 0.3 µM
- LD50 (NIE cells): 1.2 µM

Compound: Thionine
- IC50 [2, 6]: 23 ± 2.2 µM
- IC50 [2, 7]: 3.8 ± 0.3 µM
- activity in the synuclein-synuclein binding assay [1]: active
- IC50 [1, 5]: 32.2 ± 11.7 µM
- effect on Parkinsonian tremor (parkinsonian tremor; 4 individuals, MTC intravenously 1 or 2 mg/kg): gave no result
